From US9790378B2, “Vapor source using solutions of precursors in terpenes” (President and Fellows of Harvard College, priority 2010, dated 2017)

Procedure: [drawing 8] was dissolved in alloocimene.
Examples 1 and 2 were repeated except that dodecane was used as a solvent in place of alloocimene or farnesenes.
[drawing 9] is dissolved in mixed isomers of farnesene.
[drawing 10] is dissolved in mixed isomers of farnesenes.
[drawing 11] is dissolved in mixed isomers of farnesenes.
[drawing 12] is dissolved in alloocimene.
[drawing 13] is dissolved in mixed isomers of farnesene.

solubility (in words) | Substance
high | bis(N,N′-diisopropylacetamidinato)cobalt(II)
high | bis(N,N′-diisopropylpentamidinato)manganese(II)
high | copper(I) (N,N′-di-sec-butylacetamidinate)
high | tris(N,N′-diisopropylacetamidinato)yttrium(III)
high | tris(N,N′-diisopropylformamidinato)lanthanum(III)
